Each structure is given as a SMILES string. Counter-ions that a name gives are not always drawn. A value given as a limit tells only on which side of the number the result lay.

The target of this assay is M3 receptor (Homo sapiens (Human), UniProt P20309). The assay is described as follows: FLIPR calcium flux assay, antagonist mode, CHO-K1 cells stably expressing M3 receptor. The format is cell-based. Conditions: inhibition of acetylcholine-induced calcium flux (8 nM acetylcholine, EC80). The method, then: FLIPR assay was used to evaluate the potency of compounds. CHO-K1 cells stably expressing M3 receptor were cultured at 37° C. in the culture media (90% Ham's F-12 Nutrient Mixture, Gibco; 10% fetal bovine serum, Biosera; 200 μg/mL Hygromycin, and Penicillin (100 U/mL)/Streptomycin (100 μg/mL), Invitrogen) till 100% confluency in cell culture incubator (ThermoFisher, 5% CO2). Cells were harvested by using 0.25% Trypsin/EDTA, spun down at 300×g for 5 min, and resuspended in the culture media at cell density of 5×10^5 cells/mL. Twenty microliter of cell suspension (10,000 cells/well) was transferred to 384-well plate and cultured for 24 hr before assay. DMSO was used as blank control and scopolamine (MedChemExpress) as a positive control for antagonist. Compounds were prepared in DMSO (stock concentration: 1 mM) and 3×serially diluted (10 concentrations) in 384-LDV plate (Labcyte). Ninety nL of serially diluted compounds were transferred from 384-LDV plate into compound plate (PerkinElmer) by Echo 550 (Labcyte), and 30 uL assay buffer (1×HBSS with 20 mM HEPES, pH 7.4, Sigma) were added to each well. For FLIPR assay, culture media was removed and 20 uL of 1× loading dye (Assay buffer with 2 μM Fluo-8 AM, AAT Bioquest; 1 mM Probenecid and 0.0025% pluronic F-127, Sigma) was added to each well. The plate was incubated at 37° C. for 1 hr (avoid light exposure). For FLIPR assay, Excitation wavelength was set at 470/495 nm and Emission wavelength was set at 515/575 nm (Molecular Devices). Assay was performed in both agonist and antagonist modes. For agonist mode, 10 μL of diluted compounds were transferred to cell culture well and incubated at room temperature for 10 min. For antagonist mode, 10 μL diluted compounds with 8 nM acetylcholine (EC80, MedChemExpress) was added to each well, incubated at room temperature for 10 min. RFU value was calculated by subtracting minimum from maximum of FLIPR signal. Inhibitory effect of compounds on acetylcholine-induced calcium flux was calculated by % Effect=(RFUsample−RFUDMSO)/(RFUScopolamine−RFUDMSO)×100. Dose response curve fitting and IC50 value of each compound was calculated by using XLFit. The following table lists the IC50 where * means IC50>1000 nM; ** 10-100 nM; ***<10 nM.
M3 receptor, sequence (P20309 whole entry): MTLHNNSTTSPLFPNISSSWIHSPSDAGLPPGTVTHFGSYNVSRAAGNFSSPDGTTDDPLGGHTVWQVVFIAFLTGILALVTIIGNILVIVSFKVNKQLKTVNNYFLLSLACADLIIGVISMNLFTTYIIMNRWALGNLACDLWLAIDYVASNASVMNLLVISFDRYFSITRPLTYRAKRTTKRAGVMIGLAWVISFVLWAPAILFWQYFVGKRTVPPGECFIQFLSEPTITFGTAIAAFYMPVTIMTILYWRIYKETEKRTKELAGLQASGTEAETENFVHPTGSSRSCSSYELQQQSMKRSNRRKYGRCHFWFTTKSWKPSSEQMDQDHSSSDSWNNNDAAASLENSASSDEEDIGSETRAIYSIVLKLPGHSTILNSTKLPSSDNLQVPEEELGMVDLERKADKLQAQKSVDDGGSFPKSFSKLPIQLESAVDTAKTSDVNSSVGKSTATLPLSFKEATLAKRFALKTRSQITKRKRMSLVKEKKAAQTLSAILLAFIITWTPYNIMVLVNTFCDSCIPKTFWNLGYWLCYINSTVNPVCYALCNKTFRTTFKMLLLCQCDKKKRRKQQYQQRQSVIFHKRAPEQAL
On the technique in general: A change in cytosolic calcium serves as a functional read-out for many receptors and channels.
In general, IC50 refers to the point on the concentration scale where inhibition reaches its midpoint. Turning to `C[N+]1(C)CC[C@@H](OC(=O)C(O)c2ccccc2C2=CCCC2)C1` (single isomer, unassigned) [Example 2, trifluoroacetate], the IC50 was below 10 nM.

As for `C[N+]1(C)CCC[C@@H]1COC(=O)C(O)c1ccccc1C1=CCCC1` (stereo partly drawn) [Example 7, (R)-2-((2-(2-(cyclopent-1-en-1-yl)phenyl)-2-hydroxyacetoxy)methyl)-1,1-dimethylpyrrolidin-1-ium trifluoroacetate], the IC50 is 10 to 100 nM.

Take `CC(C)c1ccccc1C(O)C(=O)OC1CC[N+](C)(C)C1` (stereo not drawn) [Example 12, 3-(2-hydroxy-2-(2-isopropylphenyl)acetoxy)-1,1-dimethylpyrrolidin-1-ium chloride]: the IC50 is above 1000 nM.

For `C[N+]1(C)CCC[C@H]1COC(=O)C(O)c1ccccc1C1=CCCC1` (single isomer, unassigned) [Example 9, trifluoroacetate], the IC50 is below 10 nM.

Take `C[N+]1(C)CC[C@H](OC(=O)C(O)c2ccccc2C2=CCCC2)C1` (single isomer, unassigned) [Example 5, trifluoroacetate]: the IC50 fell in the range of 10 to 100 nM.

Consider `C[N+]1(C)CC[C@@H](OC(=O)C(O)c2ccccc2C2=CCCC2)C1` (single isomer, unassigned) [Example 3, trifluoroacetate], for which the IC50 was in the range of 10 to 100 nM.

For `C[N+]1(C)CCC[C@@H]1COC(=O)C(O)c1ccccc1C1=CCCC1` (single isomer, unassigned) [Example 6, trifluoroacetate], the half-inhibitory concentration (IC50) is below 10 nM.

`C[N+]1(C)CC[C@@H](OC(=O)C(O)c2ccccc2-c2ncco2)C1` (stereo partly drawn) [Example 1, (3R)-3-(2-hydroxy-2-(2-(oxazol-2-yl)phenyl)acetoxy)-1,1-dimethylpyrrolidin-1-ium trifluoroacetate]: the IC50 was 10 to 100 nM.

`C[N+]1(C)CCC(OC(=O)C(O)c2ccccc2C2CCCC2)C1` (stereo not drawn) [Example 10, 3-[2-(2-Cyclopentyl-phenyl)-2-hydroxy-acetoxy]-1,1-dimethyl-pyrrolidinium chloride]: the IC50 was in the range of 10 to 100 nM.

As to `C[N+]1(C)CCC(OC(=O)C(O)c2ccccc2-c2ccccc2)C1` (stereo not drawn) [Example 11, 3-(2-([1,1′-biphenyl]-2-yl)-2-hydroxyacetoxy)-1,1-dimethylpyrrolidin-1-ium chloride], the IC50 was in the range of 10 to 100 nM.

As to `C[N+]1(C)CCC[C@H]1COC(=O)C(O)c1ccccc1C1=CCCC1` (single isomer, unassigned) [Example 8, trifluoroacetate], the IC50 fell in the range of 10 to 100 nM.

`C[N+]1(C)CC[C@H](OC(=O)C(O)c2ccccc2C2=CCCC2)C1` (single isomer, unassigned) [Example 4, trifluoroacetate]: the IC50 lay within 10 to 100 nM.

(Values after patent US20240002372A1, “ANTICHOLINERGIC AGENTS” (REZUBIO PHARMACEUTICALS CO., LTD, priority 2020, published 2024).)
